Test results reported in patent publication US6518288B2, “Amlodipine fumarate” (Synthon BV, priority 2000, dated 2003).

Experiment: Solubility of amlodipine hemifumarate in water and organic solvents (descriptive statement)
Type: physicochemical
Settings: in water and most commonly used organic solvents

Substance: Amlodipine Hemifumarate
- solubility: insoluble or only sparingly soluble
